According to the NIST ThermoML archive (doi:10.1016/j.jct.2015.12.021):

Conditions: Liquid

Cc1ccc(C)c(C)c1 [1,2,4-trimethylbenzene]
viscosity [mPa·s]
Conditions	293.15 K	313.15 K	333.15 K	353.15 K
100 kPa, Vibrating wire viscometry	0.8929	0.6989	0.5596	0.4527
1000 kPa, Vibrating wire viscometry	0.9065	0.7096	0.5646	0.4566
5000 kPa, Falling or rolling sphere viscometry	0.913	0.7254	0.5819	0.4715
5000 kPa, Vibrating wire viscometry	0.9417	0.7359	0.5885	0.4711
10000 kPa, Falling or rolling sphere viscometry	0.9568	0.7531	0.6058	0.492
10000 kPa, Vibrating wire viscometry	0.9769	0.7606	0.6066	0.4886
20000 kPa, Falling or rolling sphere viscometry	1.042	0.8131	0.6529	0.532
20000 kPa, Vibrating wire viscometry	1.061	0.8203	0.6476	0.5283
30000 kPa, Falling or rolling sphere viscometry	1.137	0.8704	0.7014	0.571
30000 kPa, Vibrating wire viscometry	1.148	0.8894	0.6942	0.5626
40000 kPa, Falling or rolling sphere viscometry	1.224	0.9344	0.7504	0.6125
40000 kPa, Vibrating wire viscometry	1.233	0.9528	0.7426	0.5993
50000 kPa, Vibrating wire viscometry	1.336	1.026	0.7922	0.6375
60000 kPa, Falling or rolling sphere viscometry	–	1.07	0.8467	0.6967
60000 kPa, Vibrating wire viscometry	1.435	1.1	0.8456	0.6768
70000 kPa, Vibrating wire viscometry	1.566	1.171	0.9004	0.7177
80000 kPa, Falling or rolling sphere viscometry	–	1.25	0.9594	0.7819
80000 kPa, Vibrating wire viscometry	1.693	1.249	0.9675	0.7606
100000 kPa, Falling or rolling sphere viscometry	–	–	1.086	0.8778
100000 kPa, Vibrating wire viscometry	1.952	1.415	1.094	0.8518
120000 kPa, Falling or rolling sphere viscometry	–	–	1.228	0.9727
120000 kPa, Vibrating wire viscometry	2.288	1.599	1.221	0.9515
140000 kPa, Vibrating wire viscometry	2.668	1.824	1.343	1.065

CCCCCCCCCCCC [dodecane]
viscosity [mPa·s]
Conditions	293.15 K	313.15 K	333.15 K	353.15 K	373.15 K
100 kPa, Vibrating wire viscometry	1.491	1.064	0.8013	0.6281	0.5055
1000 kPa, Vibrating wire viscometry	1.507	1.074	0.8127	0.6372	0.5149
5000 kPa, Falling or rolling sphere viscometry	–	1.135	0.8518	0.6657	–
5000 kPa, Vibrating wire viscometry	1.586	1.124	0.855	0.6713	0.5392
10000 kPa, Falling or rolling sphere viscometry	–	1.218	0.903	0.7047	–
10000 kPa, Vibrating wire viscometry	1.672	1.201	0.8975	0.7053	0.5743
20000 kPa, Falling or rolling sphere viscometry	–	–	1.002	0.7791	–
20000 kPa, Vibrating wire viscometry	1.877	1.324	1.001	0.7819	0.6286
30000 kPa, Falling or rolling sphere viscometry	–	–	1.112	0.8651	–
30000 kPa, Vibrating wire viscometry	2.084	1.476	1.095	0.8694	0.7003
40000 kPa, Falling or rolling sphere viscometry	–	–	1.223	0.9597	–
40000 kPa, Vibrating wire viscometry	2.31	1.625	1.216	0.9528	0.7715
50000 kPa, Vibrating wire viscometry	2.56	1.778	1.321	1.037	0.8425
60000 kPa, Falling or rolling sphere viscometry	–	–	–	1.121	–
60000 kPa, Vibrating wire viscometry	2.822	1.946	1.44	1.123	0.91
70000 kPa, Vibrating wire viscometry	3.112	2.129	1.576	1.213	0.9844
80000 kPa, Vibrating wire viscometry	3.428	2.32	1.707	1.312	1.066
100000 kPa, Vibrating wire viscometry	4.117	2.758	1.994	1.532	1.22
120000 kPa, Vibrating wire viscometry	4.953	3.231	2.302	1.757	1.402
140000 kPa, Vibrating wire viscometry	5.816	3.755	2.657	2.023	1.588

CCCCCCC [heptane]
viscosity [mPa·s]
Conditions	293.15 K	298.15 K	313.15 K	333.15 K	353.15 K	363.15 K
100 kPa, Vibrating wire viscometry	0.4151	0.3914	0.3379	0.2821	0.2406	0.2224
1000 kPa, Vibrating wire viscometry	0.4202	0.3962	0.3412	0.2844	0.2435	0.2254
5000 kPa, Falling or rolling sphere viscometry	0.4359	–	0.3564	–	–	–
5000 kPa, Vibrating wire viscometry	0.4354	0.4142	0.354	0.2965	0.2549	0.2374
10000 kPa, Falling or rolling sphere viscometry	0.4603	–	0.3756	–	–	–
10000 kPa, Vibrating wire viscometry	0.4579	0.4329	0.3735	0.3121	0.2672	0.2493
20000 kPa, Falling or rolling sphere viscometry	0.5074	–	0.4131	–	–	–
20000 kPa, Vibrating wire viscometry	0.5013	0.4756	0.4074	0.3415	0.2957	0.2757
30000 kPa, Falling or rolling sphere viscometry	0.5517	–	0.4518	–	–	–
30000 kPa, Vibrating wire viscometry	0.5459	0.5175	0.4462	0.3746	0.3216	0.2996
40000 kPa, Falling or rolling sphere viscometry	0.5949	–	0.4899	–	–	–
40000 kPa, Vibrating wire viscometry	0.595	0.5613	0.4806	0.4061	0.3493	0.3252
50000 kPa, Vibrating wire viscometry	0.6406	0.6081	0.5208	0.4355	0.373	0.3504
60000 kPa, Falling or rolling sphere viscometry	0.6912	–	0.5683	–	–	–
60000 kPa, Vibrating wire viscometry	0.6927	0.6535	0.5563	0.4681	0.4019	0.3754
70000 kPa, Vibrating wire viscometry	0.7446	0.7026	0.5992	0.5022	0.4304	0.3978
80000 kPa, Falling or rolling sphere viscometry	0.7864	–	0.6498	–	–	–
80000 kPa, Vibrating wire viscometry	0.7965	0.7519	0.64	0.5337	0.457	0.4243
100000 kPa, Falling or rolling sphere viscometry	0.9027	–	0.7309	–	–	–
100000 kPa, Vibrating wire viscometry	0.9106	0.8572	0.7259	0.603	0.5119	0.4782
120000 kPa, Falling or rolling sphere viscometry	1.031	–	0.8186	–	–	–
120000 kPa, Vibrating wire viscometry	1.028	0.972	0.8176	0.6736	0.5735	0.5314
140000 kPa, Vibrating wire viscometry	1.16	1.089	0.9137	0.7509	0.6335	0.5865

CC(C)CC(C)(C)C [2,2,4-trimethylpentane]
viscosity [mPa·s]
Conditions	293.15 K	298.15 K	313.15 K	323.15 K	333.15 K	348.15 K	353.15 K
100 kPa, Vibrating wire viscometry	0.5064	0.4746	0.4035	0.3645	0.3265	0.2829	0.2738
1000 kPa, Vibrating wire viscometry	0.51	0.4819	0.4114	0.3694	0.3296	0.2863	0.2748
5000 kPa, Falling or rolling sphere viscometry	0.5412	–	0.4251	–	0.3468	–	–
5000 kPa, Vibrating wire viscometry	0.5399	0.509	0.4353	0.3915	0.3515	0.306	0.2923
10000 kPa, Falling or rolling sphere viscometry	0.5744	–	0.4517	–	0.37	–	–
10000 kPa, Vibrating wire viscometry	0.5733	0.5388	0.4633	0.4157	0.3754	0.3274	0.3175
20000 kPa, Falling or rolling sphere viscometry	0.6401	–	0.5129	–	0.4153	–	–
20000 kPa, Vibrating wire viscometry	0.6366	0.6027	0.5177	0.464	0.4216	0.3692	0.357
30000 kPa, Falling or rolling sphere viscometry	0.7047	–	0.5662	–	0.459	–	–
30000 kPa, Vibrating wire viscometry	0.7059	0.6672	0.5775	0.5146	0.4705	0.4131	0.3966
40000 kPa, Falling or rolling sphere viscometry	0.7738	–	0.6128	–	0.5083	–	–
40000 kPa, Vibrating wire viscometry	0.7817	0.7394	0.6351	0.5714	0.5232	0.4565	0.4379
50000 kPa, Vibrating wire viscometry	0.8608	0.8154	0.6902	0.6255	0.579	0.5022	0.4853
60000 kPa, Falling or rolling sphere viscometry	0.9262	–	0.7307	–	0.6083	–	–
60000 kPa, Vibrating wire viscometry	0.9567	0.8956	0.7509	0.6832	0.6246	0.5476	0.5294
70000 kPa, Vibrating wire viscometry	1.042	0.9815	0.8173	0.742	0.6779	0.6049	0.5738
80000 kPa, Falling or rolling sphere viscometry	1.115	–	0.8553	–	0.6981	–	–
80000 kPa, Vibrating wire viscometry	1.127	1.07	0.8861	0.7969	0.728	0.6507	0.6288
100000 kPa, Falling or rolling sphere viscometry	1.298	–	1.024	–	0.8101	–	–
100000 kPa, Vibrating wire viscometry	1.316	1.234	1.045	0.9249	0.8361	0.7538	0.7176
120000 kPa, Falling or rolling sphere viscometry	–	–	1.185	–	0.9406	–	–
120000 kPa, Vibrating wire viscometry	1.518	1.435	1.195	1.068	0.9606	0.864	0.8245
140000 kPa, Vibrating wire viscometry	1.739	1.648	1.363	1.21	1.095	0.977	0.9332
